Data: ChEMBL document CHEMBL1201862, “PubChem BioAssay data set” (2004)
Where “and” joins values, the source holds several entries; their conditions need not be identical. Equal entries are not always repeated.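 Cells were grown in 96-well plates and exposed to each compound for 48 hours at five concentrations; endpoints were interpolated linearly between bracketing concentrations, or set to the highest concentration if not reached. Here, GI50 denotes the concentration required for 50% inhibition of growth.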 Calls of active or inactive are those of the source. Rule as the data show it: active = GI50 up to about 1.1 µM and inactive = higher.

Experiments:
Test in all cases: NCI tumour cell line growth inhibition, 48 h
ACHN = test system: ACHN
KM12 = test system: KM12
LOX IMVI = test system: LOX IMVI
MCF7 = test system: MCF7
MDA-MB-231 = test system: MDA-MB-231
MDA-N = test system: MDA-N
Malme-3M = test system: Malme-3M
NCI-H226 = test system: NCI-H226
NCI-H23 = test system: NCI-H23
NCI-H460 = test system: NCI-H460
OVCAR-3 = test system: OVCAR-3
SF-268 = test system: SF-268
SK-MEL-5 = test system: SK-MEL-5
SNB-19 = test system: SNB-19
SR = test system: SR
SW-620 = test system: SW-620
T47D = test system: T47D
TK-10 = test system: TK-10
UACC-62 = test system: UACC-62
HOP-92 = test system: HOP-92

Row | Compound | GI50 (ACHN) | GI50 (KM12) | GI50 (LOX IMVI) | GI50 (MCF7) | GI50 (MDA-MB-231) | GI50 (MDA-N) | GI50 (Malme-3M) | GI50 (NCI-H226) | GI50 (NCI-H23) | GI50 (NCI-H460) | GI50 (OVCAR-3) | GI50 (SF-268) | GI50 (SK-MEL-5) | GI50 (SNB-19) | GI50 (SR) | GI50 (SW-620) | GI50 (T47D) | GI50 (TK-10) | GI50 (UACC-62) | GI50 (HOP-92)
1 | Cc1cc(-c2cc(C)c(O)c(C(C)(C)C)c2)cc(C(C)(C)C)c1O | 10.6 µM (inactive) and 15.7 µM (inactive) | 6.07 µM (inactive) and 9.06 µM (inactive) | 10.1 µM (inactive) and 11.5 µM (inactive) | 5.02 µM (inactive) and 6.62 µM (inactive) | 9.55 µM (inactive) and 12.9 µM (inactive) | 14.7 µM (inactive) and 8.65 µM (inactive) | 14.6 µM (inactive) and 21.4 µM (inactive) | 10.7 µM (inactive) and 19.8 µM (inactive) | 10.4 µM (inactive) and 12.9 µM (inactive) | 6.68 µM (inactive) and 5.46 µM (inactive) | 12.2 µM (inactive) and 14.1 µM (inactive) | 13.9 µM (inactive) and 11.7 µM (inactive) | 10.6 µM (inactive) and 14.7 µM (inactive) | 14.6 µM (inactive) and 13.7 µM (inactive) | 4.09 µM (inactive) | 16.4 µM (inactive) and 11 µM (inactive) | 4.53 µM (inactive) and 7 µM (inactive) | 11.2 µM (inactive) and 12.1 µM (inactive) | 13.3 µM (inactive) and 13.6 µM (inactive) | 
2 | CC1(CCC(=O)OC2CCCCC2)OCCO1 | > 100 µM (inactive) | > 100 µM (inactive) | > 100 µM (inactive) | > 100 µM (inactive) | > 100 µM (inactive) | > 100 µM (inactive) | > 100 µM (inactive) | > 100 µM (inactive) | > 100 µM (inactive) | > 100 µM (inactive) | > 100 µM (inactive) | > 100 µM (inactive) | > 100 µM (inactive) | > 100 µM (inactive) | > 100 µM (inactive) | > 100 µM (inactive) | > 100 µM (inactive) | > 100 µM (inactive) | > 100 µM (inactive) | > 100 µM (inactive)
3 | N#Cc1c(-c2ccc(Cl)cc2)c(-c2ccc(Cl)cc2)nn(CCOC(=O)CCC(=O)O)c1=O | 1.45 µM (inactive) | 0.245 µM (active) | 0.667 µM (active) | 0.165 µM (active) | 2.65 µM (inactive) | 0.08 µM (active) | 1.02 µM (active) | 0.258 µM (active) | 2.16 µM (inactive) | 0.807 µM (active) | 0.361 µM (active) | 0.809 µM (active) | 0.166 µM (active) | 2.65 µM (inactive) | 0.291 µM (active) | 0.995 µM (active) | > 32.3 µM (inactive) | 4.11 µM (inactive) | 0.26 µM (active) | < 0.01 µM (active)
4 | Nc1ncc(Br)c(NCC2(CO)CCC2)n1 | > 100 µM (inactive) | > 100 µM (inactive) | > 100 µM (inactive) | > 100 µM (inactive) | > 100 µM (inactive) | > 100 µM (inactive) | > 100 µM (inactive) | 66.8 µM (inactive) | > 100 µM (inactive) | 71.9 µM (inactive) | > 100 µM (inactive) | > 100 µM (inactive) | 54.5 µM (inactive) |  | > 100 µM (inactive) | > 100 µM (inactive) | 1.69 µM (inactive) | > 100 µM (inactive) | > 100 µM (inactive) | 56.1 µM (inactive)
5 | CC(N1CCOCC1)C(O)(c1ccccc1)c1ccccn1 (stereo not drawn) | 52.8 µM (inactive) | > 100 µM (inactive) | > 100 µM (inactive) | 41 µM (inactive) | > 100 µM (inactive) | > 100 µM (inactive) | > 100 µM (inactive) | > 100 µM (inactive) | > 100 µM (inactive) | > 100 µM (inactive) | > 100 µM (inactive) | > 100 µM (inactive) | > 100 µM (inactive) | > 100 µM (inactive) | > 100 µM (inactive) | > 100 µM (inactive) | > 100 µM (inactive) | > 100 µM (inactive) | 37.8 µM (inactive) | > 100 µM (inactive)
6 | CC(C)COC(=O)OC(=O)c1ccc(N(C)Cc2cnc3nc(N)nc(N)c3n2)cc1 | 11.4 µM (inactive) | 26.5 µM (inactive) | 1.41 µM (inactive) | 6.35 µM (inactive) | > 100 µM (inactive) | 7.96 µM (inactive) | 36.1 µM (inactive) | > 100 µM (inactive) | 11 µM (inactive) | 5.64 µM (inactive) | > 100 µM (inactive) | 9.89 µM (inactive) | 5.22 µM (inactive) | 16.1 µM (inactive) | 0.521 µM (active) | 3.86 µM (inactive) | > 100 µM (inactive) | > 88.1 µM (inactive) | 6.53 µM (inactive) | 47.5 µM (inactive)
7 | CCOC(=O)/C(=C\c1ccc(N(C)C)cc1)S(=O)(=O)C(F)(F)C(F)(F)C(F)(F)C(F)(F)F | > 100 µM (inactive) | > 100 µM (inactive) | > 100 µM (inactive) | > 100 µM (inactive) | > 100 µM (inactive) | > 100 µM (inactive) | > 100 µM (inactive) | > 100 µM (inactive) | > 100 µM (inactive) | > 100 µM (inactive) | > 100 µM (inactive) | > 100 µM (inactive) | > 100 µM (inactive) | > 100 µM (inactive) | > 100 µM (inactive) | > 100 µM (inactive) | > 100 µM (inactive) | 13 µM (inactive) | > 100 µM (inactive) | > 100 µM (inactive)
